In ChEMBL document CHEMBL1201862, “PubChem BioAssay data set” (2004):
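Five concentrations, 48 hours, 96-well plates. Abbreviation: GI50, concentration required for 50% inhibition of growth.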 The source made the active and inactive calls. No stated cut-off is given here; in the data, active = GI50 up to about 1.1 µM and inactive = higher.

How the values were obtained:
Test in all cases: NCI tumour cell line growth inhibition, 48 h
NCI-H226 = tested on: NCI-H226
SN12C = tested on: SN12C
HL-60 = tested on: HL-60
IGROV-1 = tested on: IGROV-1
NCI-H23 = tested on: NCI-H23
U-251 = tested on: U-251
NCI-H460 = tested on: NCI-H460
HCC 2998 = tested on: HCC 2998
LXFL 529 = tested on: LXFL 529
MOLT-4 = tested on: MOLT-4
OVCAR-4 = tested on: OVCAR-4
A498 = tested on: A498
NCI-H522 = tested on: NCI-H522
SNB-19 = tested on: SNB-19
LOX IMVI = tested on: LOX IMVI
786-0 = tested on: 786-0
HT-29 = tested on: HT-29
UACC-62 = tested on: UACC-62

Measured: GI50

COc1ccc(OC)c(NC(=O)C(=O)NNC(=O)c2sc(NNC(C)=O)nc2C)c1
inactive: NCI-H226 32.7 µM | SN12C 33 µM | HL-60 36.2 µM | IGROV-1 53.5 µM | NCI-H23 21.8 µM | U-251 36.6 µM | NCI-H460 30.8 µM | HCC 2998 45.1 µM | LXFL 529 29.4 µM | MOLT-4 18.7 µM | OVCAR-4 26.3 µM | A498 8.3 µM | NCI-H522 18.2 µM | SNB-19 59.4 µM | LOX IMVI 26.2 µM | 786-0 35.6 µM | HT-29 35.6 µM | UACC-62 29.6 µM

O=c1c2ccccc2nc(-c2ccccc2)n1NC1OC(CO)C(O)C(O)C1O (centres undefined)
inactive: NCI-H226 > 100 µM | SN12C > 100 µM | HL-60 > 100 µM | IGROV-1 > 100 µM | NCI-H23 > 100 µM | U-251 > 100 µM | NCI-H460 > 100 µM | HCC 2998 > 100 µM | LXFL 529 > 100 µM | MOLT-4 > 100 µM | OVCAR-4 > 100 µM | A498 > 100 µM | NCI-H522 > 100 µM | SNB-19 > 100 µM | 786-0 > 100 µM | HT-29 > 100 µM | UACC-62 > 100 µM

COc1ccc(OC)c2c1C(=O)C1CC1(Br)C2=O (centres undefined)
inactive: SN12C > 100 µM | HL-60 > 100 µM | IGROV-1 > 100 µM | NCI-H23 > 100 µM | U-251 > 100 µM | NCI-H460 > 100 µM | HCC 2998 > 100 µM | LXFL 529 > 100 µM | MOLT-4 > 100 µM | OVCAR-4 > 100 µM | A498 > 100 µM | NCI-H522 > 100 µM | SNB-19 > 100 µM | LOX IMVI > 100 µM | 786-0 > 100 µM | HT-29 > 100 µM | UACC-62 > 100 µM

O=C(O)c1cc(=O)c2cc(C(=O)c3cccs3)c(Cl)c(Cl)c2o1
inactive: NCI-H226 > 100 µM | SN12C > 100 µM | HL-60 > 100 µM | IGROV-1 > 100 µM | NCI-H23 > 100 µM | U-251 > 100 µM | NCI-H460 > 100 µM | HCC 2998 > 100 µM | LXFL 529 > 100 µM | MOLT-4 > 100 µM | OVCAR-4 > 100 µM | A498 > 100 µM | NCI-H522 > 100 µM | SNB-19 > 100 µM | 786-0 > 100 µM | HT-29 > 100 µM | UACC-62 > 100 µM
